Test results: BindingDB's records for patent US11958871 (Fraunhofer-Gesellschaft Zur Forderung Der Angewandten …, 2024)

Legend:
[1] = target: T1, Peptidase M28 domain-containing protein (Prevotella nigrescens CC14M, UniProt V8CNC2)
T1 sequence (V8CNC2 whole entry): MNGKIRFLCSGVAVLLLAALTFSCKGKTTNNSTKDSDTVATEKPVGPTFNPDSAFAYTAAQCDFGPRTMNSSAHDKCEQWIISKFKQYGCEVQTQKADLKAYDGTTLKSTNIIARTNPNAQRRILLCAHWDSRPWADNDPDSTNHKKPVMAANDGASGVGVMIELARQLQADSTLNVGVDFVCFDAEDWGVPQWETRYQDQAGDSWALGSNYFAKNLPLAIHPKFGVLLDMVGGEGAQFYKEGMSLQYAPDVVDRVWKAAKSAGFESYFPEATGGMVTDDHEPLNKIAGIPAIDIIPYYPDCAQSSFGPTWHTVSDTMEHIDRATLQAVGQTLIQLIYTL

[2] = target: T2, Glutamine cyclotransferase-related protein (Porphyromonas gingivalis (strain ATCC BAA-308 / W83), UniProt Q7MT37); assay: Inhibition of Glutaminyl Cyclases
T2 sequence (Q7MT37 whole entry): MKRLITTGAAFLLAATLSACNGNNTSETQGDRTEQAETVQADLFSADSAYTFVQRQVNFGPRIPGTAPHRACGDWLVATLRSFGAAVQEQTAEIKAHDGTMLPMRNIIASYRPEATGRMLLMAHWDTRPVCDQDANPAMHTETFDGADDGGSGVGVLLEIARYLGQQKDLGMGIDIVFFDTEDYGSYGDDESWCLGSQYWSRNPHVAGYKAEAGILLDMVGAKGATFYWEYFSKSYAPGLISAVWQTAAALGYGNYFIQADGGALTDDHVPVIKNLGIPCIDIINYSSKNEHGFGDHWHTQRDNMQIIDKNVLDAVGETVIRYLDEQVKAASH
Method: For inhibitor testing, the sample composition was the same as described above, except for the addition of the putative inhibitory compound. […] Inhibitory constants were determined using different concentration of H-Gln-AMC varying from Km-2 Km. Final concentration of bacterial QC was in a range between 25 nM-50 nM.

[3] = target: Glutaminyl-peptide cyclotransferase (Homo sapiens, UniProt Q16769)
[4] = target: T3, Peptidase, M28 family (Tannerella forsythia (strain ATCC 43037 / JCM 10827 / CCUG 21028 A / KCTC 5666 / FDC 338), UniProt G8UMP8)
T3 sequence (G8UMP8 whole entry): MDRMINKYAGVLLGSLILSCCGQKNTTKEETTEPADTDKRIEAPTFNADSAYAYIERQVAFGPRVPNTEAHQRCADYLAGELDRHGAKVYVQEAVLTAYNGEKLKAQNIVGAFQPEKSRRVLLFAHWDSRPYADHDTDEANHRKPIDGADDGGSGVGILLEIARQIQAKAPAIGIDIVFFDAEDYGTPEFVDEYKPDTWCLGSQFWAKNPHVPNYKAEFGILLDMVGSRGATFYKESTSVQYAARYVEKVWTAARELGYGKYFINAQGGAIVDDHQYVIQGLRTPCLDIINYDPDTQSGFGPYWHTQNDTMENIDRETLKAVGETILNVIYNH

Sequence of Glutaminyl-peptide cyclotransferase (Q16769 whole entry): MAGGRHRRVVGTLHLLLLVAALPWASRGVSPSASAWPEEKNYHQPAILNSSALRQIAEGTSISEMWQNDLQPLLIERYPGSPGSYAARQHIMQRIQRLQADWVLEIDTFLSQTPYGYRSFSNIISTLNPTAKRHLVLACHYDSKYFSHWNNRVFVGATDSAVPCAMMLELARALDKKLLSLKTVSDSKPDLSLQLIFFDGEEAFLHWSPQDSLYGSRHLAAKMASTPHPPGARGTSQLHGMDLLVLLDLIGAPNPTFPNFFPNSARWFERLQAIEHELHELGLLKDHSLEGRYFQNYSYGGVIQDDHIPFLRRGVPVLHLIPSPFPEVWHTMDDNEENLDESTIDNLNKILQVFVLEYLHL

## c1ccc(CNc2ccc3nc[nH]c3n2)cc1 [US11958871, Example 1]
[1]
  Ki: 9.4 µM

## c1ccc(CNc2cnc3[nH]cnc3c2)cc1 [US11958871, Example 2]
[2]
  Ki: 0.149 µM
[3]
  Ki: 1.28 µM
[4]
  Ki: 1.4 µM

## Fc1cc(CNc2cnc3[nH]cnc3c2)cc(F)c1F [US11958871, Example 3]
[2]
  Ki: 0.157 µM

## Clc1cccc(CNc2cnc3[nH]cnc3c2)c1 [US11958871, Example 5]
[2]
  Ki: 0.106 µM
[3]
  Ki: 0.769 µM

## COc1cccc(CNc2cnc3[nH]cnc3c2)c1 [US11958871, Example 6]
[2]
  Ki: 0.077 µM
[3]
  Ki: 0.599 µM

## COc1ccc(CNc2cnc3[nH]cnc3c2)cc1 [US11958871, Example 7]
[2]
  Ki: 0.083 µM

## c1nc2cc(NCc3ccsc3)cnc2[nH]1 [US11958871, Example 8]
[2]
  Ki: 0.185 µM
[3]
  Ki: 1.87 µM

## c1cc(CNc2cnc3[nH]cnc3c2)cc(N2CCCCC2)c1 [US11958871, Example 9]
[2]
  Ki: 0.442 µM

## c1ccc(CNc2cnc3[nH]cnc3c2)nc1 [US11958871, Example 10]
[2]
  Ki: 0.395 µM

## c1cncc(CNc2cnc3[nH]cnc3c2)c1 [US11958871, Example 11]
[2]
  Ki: 0.139 µM

## c1nc2cc(NCc3ccc4c(c3)OCCO4)cnc2[nH]1 [US11958871, Example 12]
[2]
  Ki: 0.044 µM
[3]
  Ki: 0.543 µM
[4]
  Ki: 0.68 µM
[1]
  Ki: 0.728 µM

## COc1ccc(CNc2cnc3[nH]cnc3c2)cc1OC [US11958871, Example 13]
[2]
  Ki: 0.133 µM
[3]
  Ki: 0.556 µM

## Clc1ccc(CNc2cnc3[nH]cnc3c2)cc1Cl [US11958871, Example 14]
[2]
  Ki: 0.053 µM
[3]
  Ki: 0.431 µM
[4]
  Ki: 0.358 µM

## CCCOc1ccc(CNc2cnc3[nH]cnc3c2)cc1 [US11958871, Example 15]
[2]
  Ki: 0.034 µM

## NCCOc1ccc(CNc2cnc3[nH]cnc3c2)cc1 [US11958871, Example 16]
[2]
  Ki: 0.03 µM
[3]
  Ki: 1.07 µM
[4]
  Ki: 0.317 µM
